{"source": "paper PMC8842277", "about": "“Highly Antiproliferative Latonduine and Indolo[2,3-c]quinoline Derivatives: Complex Formation with Copper(II) Markedly Changes the Kinase Inhibitory Profile” (Journal of Medicinal Chemistry, 2022)", "target": "RSK1 (Homo sapiens, UniProt Q15418)", "sequence (Q15418 whole entry)": "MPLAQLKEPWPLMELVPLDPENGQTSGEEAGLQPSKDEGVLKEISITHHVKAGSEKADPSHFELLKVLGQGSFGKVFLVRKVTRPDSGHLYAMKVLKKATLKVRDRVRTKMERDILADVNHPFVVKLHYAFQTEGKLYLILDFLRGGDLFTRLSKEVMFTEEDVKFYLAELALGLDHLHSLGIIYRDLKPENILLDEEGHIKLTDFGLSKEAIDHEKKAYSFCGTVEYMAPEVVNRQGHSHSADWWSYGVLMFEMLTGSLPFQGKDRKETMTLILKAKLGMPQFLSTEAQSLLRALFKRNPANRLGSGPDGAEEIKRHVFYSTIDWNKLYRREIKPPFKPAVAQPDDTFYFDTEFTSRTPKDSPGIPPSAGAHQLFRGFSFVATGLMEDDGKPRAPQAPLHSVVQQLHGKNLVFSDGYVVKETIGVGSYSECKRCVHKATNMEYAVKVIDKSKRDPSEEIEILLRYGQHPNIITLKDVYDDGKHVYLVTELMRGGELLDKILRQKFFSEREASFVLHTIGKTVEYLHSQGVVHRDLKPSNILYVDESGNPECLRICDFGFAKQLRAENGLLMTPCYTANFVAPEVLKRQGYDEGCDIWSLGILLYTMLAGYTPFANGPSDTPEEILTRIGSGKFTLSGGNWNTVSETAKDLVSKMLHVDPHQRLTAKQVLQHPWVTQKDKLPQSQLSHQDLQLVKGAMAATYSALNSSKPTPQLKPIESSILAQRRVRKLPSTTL", "assay": "Kinase panel screen", "type": "biochemical", "settings": "10 µM compound", "description": "Figure 7 (see also Table S4) summarizes the results of this assay as a histogram plotting the percentage of the remaining enzyme activity (x-axis) as a function of added lead compound (HL^8: blue trace, 8: red trace) for each of the 50 enzymes assayed (y-axis). […] Thus, the coordination to copper(II) completely changes the kinase inhibition profile of HL^8.\nFigure 7 Screening of HL^8 and 8 against 50 enzymes: histogram with % remaining activity on the x-axis plotted against the compound identifier (blue trace: HL^8 and red trace: 8) and enzyme identifier on the […]. The screen was carried out at a compound concentration of 10 μM, an enzyme concentration of 50 nM, and an ATP concentration of 100 μM.\nAll kinase assays were carried out using Multidrop 384’s at room temperature in a total assay volume of 25.5 μL. To plates containing 0.5 μL of HL^8 and 8, DMSO control or acid blank […], 15 μL of an enzyme mix containing enzyme […], and excess peptide/protein substrate in buffer was added. Compounds were pre-incubated in the presence of the enzyme and peptide/protein substrate for 5 min before initiation of the reaction by addition of 10 μL of ATP (final concentration selected for each kinase at 5, 20, or 50 μM). Assays were carried out for 30 min at room temperature before termination by the addition of 5 μL of orthophosphoric acid. The assay plates were then harvested onto P81 Unifilter Plates by a PerkinElmer Harvester and air dried. The dry Unifilter plates were then sealed on the addition of MicroScint O and were counted in PerkinElmer Topcount scintillation counters.", "data": [{"smiles": "CC(=NNc1nc2ccccc2c2c1[nH]c1ccc(Br)cc12)c1ccc(CN2CCOCC2)cn1.[Cl][Cu][Cl]", "note": "[compound 8, CuCl2(HL^8)·H2O]", "values": [{"measurement": "% remaining activity", "value": 53, "unit": "%"}]}]}
